SMILES strings stand for the structures. “Also recorded” adds a separate entry of the source.

Data on 3 compounds can be found in EP0187057A1, “2-Phenyl-isopropyl-allophanate, preparation and pharmaceutical application” (priority 1984, dated 1986).

Assay [1] deals with myoclonies palpébrales provoquées par l'infusion veineuse de pentétrazol. In words: Intravenous pentetrazol infusion producing palpebral myoclonus (threshold seizures). It is filed as in vivo, lapin. The note with it: reference anticonvulsants, essais croisés, unit not given. An excerpt: (§1) Propriétés anticonvulsivantes : • On a effectué, pour déterminer ces propriétés anticonvulsivantes, des expérimentations sur le SCS 289 en procédant à des essais de protection : • - chez le lapin soumis à une transélectrification cranienne génératrice de crises épileptiformes de type "grand mal" ou recevant une infusion veineuse de pentétrazol provoquant l'apparition de myoclonies palpébrales; • - chez la souris recevant, par voie sous-cutanée des doses croissantes de pentétrazol entraînant convulsions et mort ou soumise à une transélectrification transcranienne à basse fréquence génératrice de crises psychomotrices.
Les résultats quant à la protection contre les crises pentétrazoliques liminaires génératrices de myaclonies palpébrales figurent dans les tableaux ci-après.
L'administration préalable de SCS 289 retarde l'apparition des myoclonies palpébrales provoquées par l'infusion veineuse de pentétrazol.
Une expérimentation similaire pratiquée en essais croisés a donné les résultats suivants pour divers anticonvulsivants de référence : […]

The test system of a further assay is crises psychomotrices. In words: Psychomotor seizures induced by low-frequency transcranial electrical stimulation. It is filed as in vivo, souris. The following applies: for Pourcentage de souris protégées une heure après traitement: groupes de 20 souris; for ED50: Mus musculus, po, read-out: DE50 capable de protéger 50 % des animaux contre les crises psychomotrices.
Source text: as §1
On a également recherché si le SCS 289 était susceptible de protéger la souris contre le choc psychomoteur induit par une stimulation transcranienne à basse fréquence qui provoque, chez l'animal, un bref comportement de désorientation rappelant les attaques psychomotrices de l'homme.
Vis-à-vis des crises psychomotrices provoquées chez la souris par une stimulation électrique transcranienne à basse fréquence, le SCS 35 apparait plus actif que le SCS 289 : […]

Assay [2] relates to crises épileptiformes consécutives à l'électrochoc. In words: Maximal electroshock producing epileptiform 'grand mal' seizures (1st and 2nd electroshock). It is filed as in vivo, lapin. The following applies: for % d'animaux protégés complètement: one hour before second electroshock, groups of ten rabbits.
Source text: as §1
Ne considérant comme significative, que la protection complète, les traitements pratiqués une heure avant le second électrochoc ont conféré les protection suivantes (sur groupes de dix lapins) :
Si, par ailleurs, on considère la protection contre les crises toniques (hyperextension des pattes postérieures), il apparaît également une synergie particulièrement aux doses associées de 200 mg/kg de produits.
For orientation: In the maximal electroshock model the usual endpoint is tonic extension of the hind limbs.

A further assay has as its system crises pentétrazoliques. In words: Convulsant and lethal effects of subcutaneous pentetrazol (125 mg/kg). The format is in vivo, souris.
Source text: as §1
Pour déceler une synergie d'action antagoniste vis-à-vis des effets convulsivants et létaux du pentétrazol injecté par voie sous-cutanée chez la souris à la dose de 125 mg/kg, on a déterminé avec plus de précision la DE50 du SCS 289 et on a recherché si l'association avec le SCS 35 apportait un surcroit appréciable d'activité.
On n'a retenu comme significative que la protection à l'égard des effets létaux observés sur 24 heures.

Consider `NC(=O)NC(=O)Cc1ccccc1` [Phénacétamide], for which the “Elévation du seuil myoclonique” value in assay [1] (25 mg/kg) is reported as 32,4; in assay [1] (50 mg/kg), 43,1; in assay [1] (100 mg/kg), 58,2. The “Pourcentage de souris protégées une heure après traitement” value in the assay on crises psychomotrices (10 mg/kg voie digestive) was determined as 40%; with crises psychomotrices (25 mg/kg voie digestive), 70%; in the assay with crises psychomotrices (50 mg/kg voie digestive) it was 85%; in the assay with crises psychomotrices (100 mg/kg voie digestive) it was 100%. The ED50 in the assay on crises psychomotrices (souris, voie digestive) was around 14 mg/kg.
For `CCOC(=O)N(C(N)=O)c1ccccc1` [SCS 35, phényl-2 allophanate d'éthyle], the “% d'animaux protégés complètement” value is on record as “Nul” in assay [2] (100 mg/kg) and 10% in assay [2] (200 mg/kg). The “% d'animaux protégés contre les seules crises toniques” value came to 60% in assay [2] (100 mg/kg, hyperextension tonique des pattes postérieures) and 80% in assay [2] (200 mg/kg). In addition, the “Pourcentage de souris protégées une heure après traitement” value in the assay on crises psychomotrices (5 mg/kg voie digestive) is given as 60%; with crises psychomotrices (10 mg/kg voie digestive) it was 90%; with crises psychomotrices (2,5 mg/kg voie digestive), 40%. For the same compound, the ED50 with crises psychomotrices (souris, voie digestive) stood at 3.5 mg/kg; in the assay on crises pentétrazoliques (Mus musculus, sc, 24 h, souris, read-out: DE50 à l'égard des crises pentétrazoliques maximales et létales), 55 mg/kg. In addition, the “DE50 capable de protéger 50 % des animaux contre les crises psychomotrices” value in the assay with crises psychomotrices (souris, voie digestive) is reported as 3,5 mg/kg. Besides, the “% de protection vis-à-vis de la létalité pentétrazolique” value in the assay on crises pentétrazoliques (10 mg/kg) is on record as 0%; in the assay on crises pentétrazoliques (20 mg/kg), 10%; in the assay with crises pentétrazoliques (50 mg/kg) it was 50%.
On to `CCCC(CCC)C(=O)O` [Valproate de sodium], for which the “Elévation du seuil myoclonique” value in assay [1] (100 mg/kg) is listed as 54,7; in assay [1] (500 mg/kg), 65,5. Further, the “protection contre les crises électriques maximales” value in assay [2] (500 mg/kg, same experimental conditions) was “absolument inefficace; also recorded: inactif”. The “Pourcentage de souris protégées une heure après traitement” value in the assay on crises psychomotrices (50 mg/kg voie digestive) is listed as 15%; with crises psychomotrices (100 mg/kg voie digestive) it was 40%; in the assay with crises psychomotrices (250 mg/kg voie digestive) it was 85%. In addition, the ED50 in the assay with crises psychomotrices (souris, voie digestive) was around 120 mg/kg. Further, in the assay on crises psychomotrices (index thérapeutique absolu, souris), the “DL50/DE50 / Crises psycho-motrices” value is 15. Besides, the “DE50 psychodépressive / DE50 anticonvulsivante / Crises psycho-motrices” value in the assay on crises psychomotrices (index thérapeutique relatif, psychodépressive = mean of DE50 for agilité, force musculaire, motricité, curiosité) is on record as 7.
